{
  "source": "patent US20250270251A1",
  "about": "“PROCESS FOR THE PREPARATION OF […] HAVING A DEFINITE PARTICLE SIZE DISTRIBUTION AND A IRREGULAR HEXAGON PLATES CRYSTAL HABIT” (F.I.S. - FABBRICA ITALIANA SINTETICI S.P.A., priority 2020, published 2025)",
  "format_in_all_cases": "physicochemical",
  "key": {"[1]": {"test": "Particle size distribution (PSD) with a Malvern Mastersizer 3000", "experimental": "Particle size distribution (PSD): In particular, particle size distribution was determined with a Malvern Mastersizer 3000, and the other parameters used are reported in table below: […]"}, "[2]": {"test": "DSC comparative study of crystal habits", "details": "irregular hexagon plates versus non-irregular hexagon plates crystals; from DSC onset and peak", "experimental": "DSC analysis was recorded with a Mettler DSC822e. A sample of compound was charged into a 40 μL aluminium crucible with a pinhole lid and was heated, under nitrogen (50 mL/min), at 10° C./min from 30 to 300° C.\nDSC testing was performed in a sealed medium pressure stainless steel crucible. All the testing was performed by heating the sample from 30° C. at a rate of 10° C./minute up to a maximum temperature of 300° C."}, "[3]": {"test": "Microscopy analysis (SEM) for identification of crystal habit and size", "details": "crystallized with a C2-C5 alkyl alcohol, examples 2 to 9", "experimental": "The mean square weight means is determined by chord-length distribution analysis of Trenbolone Acetate of formula (I), in particular, was through by scanning electron microscopy (SEM).\nMicroscopy analysis: the solid of Trenbolone Acetate (I) was analysed by microscopy for identification of crystal habits.\nMicroscope was recorded with a Zeiss Evo MA10 scanning electron microscope. A sample of powder has been gold spattered and observed by SEM at different magnification, micrographs have been collected at same conditions and magnification (20 kV, HDBSD, Variable Pressure). All the samples have been observed after same treatment and same time after preparation."}, "[4]": {"details": "Example 12, crystallization from isopropanol, seed D10 4-12, D50 12-29, D90 <76 μm"}, "[5]": {"details": "Example 13, recrystallization from IPA, seed D10 2-5, D50 10-20, D90 25-51 μm"}},
  "data": [
    {"compound": "CC(=O)O[C@H]1CC[C@H]2[C@@H]3CCC4=CC(=O)CCC4=C3C=C[C@]12C", "note": "[Compound (I), 17beta-acetoxy-estra-4,9,11-triene-3-one]", "values": [
      {"measurement": "PSD D50", "setting": "[1]; Example 2, crystallization from isopropanol, seeded at 20-25 °C", "result": "67-130 μm"},
      {"measurement": "PSD D10", "setting": "[1]; [4]", "result": "15-40 μm"},
      {"measurement": "PSD D50", "setting": "[1]; [4]", "result": "67-130 μm"},
      {"measurement": "PSD D90", "setting": "[1]; [4]", "result": 350, "unit": "μm"},
      {"measurement": "PSD D10", "setting": "[1]; [5]", "result": "15-40 μm"},
      {"measurement": "PSD D50", "setting": "[1]; [5]", "result": "67-130 μm"},
      {"measurement": "PSD D90", "setting": "[1]; [5]", "result": 300, "unit": "μm"},
      {"measurement": "thermodynamic stability of the crystal habit", "setting": "[2]", "result": "thermodynamically more stable"},
      {"measurement": "size range of thin irregular hexagon plates", "setting": "[3]", "result": "20-200 micron"}
    ]}
  ]
}
